Results from publication PMC12472391, “Borylated Five-Membered Ring Iminosugars: Synthesis, Spectroscopic Analysis, and Biological Evaluation for Glycosidase Inhibition and Anticancer Properties for Application in Boron Neutron Capture Therapy (BNCT)—Part 1” (Pharmaceuticals, 2025).

Assays:
Assay in all cases: Glycosidase inhibition, Table 6 (Laboratory 1)
Assay type in all cases: biochemical
[1] = molecular target: T1, α-D-glucosidase (from yeast) (Saccharomyces cerevisiae, UniProt P53341)
T1 construct: purchased Sigma-Aldrich Co
T1 sequence (P53341 whole entry): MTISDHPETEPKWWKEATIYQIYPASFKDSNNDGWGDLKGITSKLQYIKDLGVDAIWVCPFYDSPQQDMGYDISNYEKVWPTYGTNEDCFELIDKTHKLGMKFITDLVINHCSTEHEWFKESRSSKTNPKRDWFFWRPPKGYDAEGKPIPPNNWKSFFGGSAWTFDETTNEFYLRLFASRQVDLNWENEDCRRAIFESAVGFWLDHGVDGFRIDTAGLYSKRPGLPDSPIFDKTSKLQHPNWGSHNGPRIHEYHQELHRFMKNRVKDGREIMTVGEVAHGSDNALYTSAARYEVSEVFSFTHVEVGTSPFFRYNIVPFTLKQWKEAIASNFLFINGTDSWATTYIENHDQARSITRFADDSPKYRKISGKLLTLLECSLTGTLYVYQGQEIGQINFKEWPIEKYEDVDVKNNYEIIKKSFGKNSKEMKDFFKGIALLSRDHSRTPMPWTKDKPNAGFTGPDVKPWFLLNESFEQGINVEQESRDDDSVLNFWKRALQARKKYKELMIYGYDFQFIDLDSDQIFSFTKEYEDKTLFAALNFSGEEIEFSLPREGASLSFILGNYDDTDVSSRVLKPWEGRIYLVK
Text: (§1) The enzymes α-D-glucosidase (from yeast), β-D-glucosidases (from almond and bovine liver), α-D-galactosidase (from coffee beans), β-D-galactosidase (from bovine liver), α-D-mannosidase (from Jack bean), β-D-mannosidase (from snail), α-L-rhamnosidase (from Penicillium decumbens), α-L-fucosidase (from bovine kidney), trehalase (from porcine kidney), β-D-glucuronidases (from E. coli and bovine liver), amyloglucosidase (from A. niger), para-nitrophenyl glycosides, and various disaccharides were purchased from Sigma-Aldrich Co. (St. Louis, MO, USA).
(§2) Brush border membranes were prepared from the rat small intestine according to the method of Kessler et al., and were assayed at pH 6.8 for rat intestinal maltase using maltose. For rat intestinal maltase, porcine kidney trehalase, and A. niger amyloglucosidase activities, the reaction mixture contained maltose (25 mM) and the appropriate amount of enzyme, and the incubations were performed for 10–30 min at 37 °C. The reaction was stopped by heating at 100 °C for 3 min. After centrifugation (600× g; 10 min), the resulting reaction mixture was added to the Glucose CII-test Wako (Wako Pure Chemical Ind., Osaka, Japan). The absorbance at 505 nm was measured to determine the amount of the released D-glucose. Other glycosidase activities were determined using an appropriate para-nitrophenyl glycoside as substrate at the optimum pH of each enzyme. The reaction mixture contained the substrate (2 mM) and the appropriate amount of enzyme. The reaction was stopped by the addition of Na2CO3 (400 mM). The released para-nitrophenol was measured spectrometrically at 400 nm. All reactions run in methanol.

[2] = tested on: α-L-rhamnosidase (from Penicillium decumbens)
Text: as §1, §2

β-D-glucosidase (almond) = tested on: β-D-glucosidase (almond)
Text: as §1, §2

[3] = tested on: β-D-glucuronidase (bovine liver)
Text: as §1, §2

[4] = tested on: β-D-mannosidase (from snail)
Text: as §1, §2

[5] = molecular target: T2, amyloglucosidase (from A. niger) (Aspergillus niger, UniProt P69328)
T2 construct: purchased Sigma-Aldrich Co
T2 sequence (P69328 25-640): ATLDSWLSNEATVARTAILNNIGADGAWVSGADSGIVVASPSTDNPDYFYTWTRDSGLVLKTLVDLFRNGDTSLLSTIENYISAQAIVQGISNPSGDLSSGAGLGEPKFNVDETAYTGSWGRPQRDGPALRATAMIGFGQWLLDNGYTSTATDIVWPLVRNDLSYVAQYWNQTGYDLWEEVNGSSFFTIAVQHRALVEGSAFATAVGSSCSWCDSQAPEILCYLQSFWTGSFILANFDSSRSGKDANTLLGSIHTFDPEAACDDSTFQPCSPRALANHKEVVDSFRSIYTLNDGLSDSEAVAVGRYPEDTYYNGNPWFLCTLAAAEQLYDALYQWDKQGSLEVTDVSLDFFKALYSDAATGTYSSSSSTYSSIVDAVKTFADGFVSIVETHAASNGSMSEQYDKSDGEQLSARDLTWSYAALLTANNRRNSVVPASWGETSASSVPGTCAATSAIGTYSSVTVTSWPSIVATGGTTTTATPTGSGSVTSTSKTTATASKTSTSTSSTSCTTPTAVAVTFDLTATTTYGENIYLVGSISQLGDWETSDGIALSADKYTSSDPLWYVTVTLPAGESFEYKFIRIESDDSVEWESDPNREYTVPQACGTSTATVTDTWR
Text: as §1, §2

[6] = molecular target: T3, α-D-galactosidase (from coffee beans) (Coffea arabica, UniProt Q42656)
T3 construct: purchased Sigma-Aldrich Co
T3 sequence (Q42656 16-378): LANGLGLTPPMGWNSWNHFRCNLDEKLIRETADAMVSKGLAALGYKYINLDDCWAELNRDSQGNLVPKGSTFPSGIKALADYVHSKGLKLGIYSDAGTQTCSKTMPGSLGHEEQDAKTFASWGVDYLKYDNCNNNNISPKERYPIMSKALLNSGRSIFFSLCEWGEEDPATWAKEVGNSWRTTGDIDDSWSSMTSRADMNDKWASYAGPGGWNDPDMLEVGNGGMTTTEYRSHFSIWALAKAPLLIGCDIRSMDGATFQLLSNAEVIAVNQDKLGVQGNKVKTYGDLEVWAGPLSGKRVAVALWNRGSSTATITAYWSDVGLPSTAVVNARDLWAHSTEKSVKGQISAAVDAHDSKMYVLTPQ
Text: as §1, §2

[7] = molecular target: T4, α-D-mannosidase (from Jack bean) (Canavalia ensiformis, UniProt C0HJB3)
T4 construct: purchased Sigma-Aldrich Co
T4 sequence (C0HJB3 1-981): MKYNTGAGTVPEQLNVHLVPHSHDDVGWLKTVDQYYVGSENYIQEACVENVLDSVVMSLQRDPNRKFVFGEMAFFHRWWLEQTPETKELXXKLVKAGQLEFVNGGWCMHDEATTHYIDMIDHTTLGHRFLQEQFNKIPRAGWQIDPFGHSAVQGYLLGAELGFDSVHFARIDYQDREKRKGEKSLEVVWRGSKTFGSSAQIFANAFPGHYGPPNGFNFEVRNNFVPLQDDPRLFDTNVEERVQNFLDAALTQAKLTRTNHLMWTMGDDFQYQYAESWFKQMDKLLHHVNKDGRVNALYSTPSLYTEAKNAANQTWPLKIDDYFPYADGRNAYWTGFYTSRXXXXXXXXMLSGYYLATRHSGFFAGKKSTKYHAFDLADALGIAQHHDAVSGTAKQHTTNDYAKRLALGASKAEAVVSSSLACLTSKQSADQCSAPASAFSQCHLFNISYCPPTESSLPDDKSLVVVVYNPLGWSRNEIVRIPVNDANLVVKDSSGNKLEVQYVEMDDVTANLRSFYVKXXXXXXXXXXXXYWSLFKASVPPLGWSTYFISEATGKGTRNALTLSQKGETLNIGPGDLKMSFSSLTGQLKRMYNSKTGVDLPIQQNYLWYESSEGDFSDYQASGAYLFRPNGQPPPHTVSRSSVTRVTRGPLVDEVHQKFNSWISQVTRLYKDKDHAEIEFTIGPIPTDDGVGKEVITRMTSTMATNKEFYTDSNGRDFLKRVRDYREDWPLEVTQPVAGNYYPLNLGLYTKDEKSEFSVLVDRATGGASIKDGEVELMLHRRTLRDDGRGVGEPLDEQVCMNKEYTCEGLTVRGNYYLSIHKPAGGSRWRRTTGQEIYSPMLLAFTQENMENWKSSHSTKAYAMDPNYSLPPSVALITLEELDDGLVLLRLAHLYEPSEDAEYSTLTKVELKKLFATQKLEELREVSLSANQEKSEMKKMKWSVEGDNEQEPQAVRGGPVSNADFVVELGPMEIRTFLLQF
Text: as §1, §2

[8] = molecular target: T5, α-L-fucosidase (from bovine kidney) (Bos taurus, UniProt Q2KIM0)
T5 construct: purchased Sigma-Aldrich Co
T5 sequence (Q2KIM0 23-468): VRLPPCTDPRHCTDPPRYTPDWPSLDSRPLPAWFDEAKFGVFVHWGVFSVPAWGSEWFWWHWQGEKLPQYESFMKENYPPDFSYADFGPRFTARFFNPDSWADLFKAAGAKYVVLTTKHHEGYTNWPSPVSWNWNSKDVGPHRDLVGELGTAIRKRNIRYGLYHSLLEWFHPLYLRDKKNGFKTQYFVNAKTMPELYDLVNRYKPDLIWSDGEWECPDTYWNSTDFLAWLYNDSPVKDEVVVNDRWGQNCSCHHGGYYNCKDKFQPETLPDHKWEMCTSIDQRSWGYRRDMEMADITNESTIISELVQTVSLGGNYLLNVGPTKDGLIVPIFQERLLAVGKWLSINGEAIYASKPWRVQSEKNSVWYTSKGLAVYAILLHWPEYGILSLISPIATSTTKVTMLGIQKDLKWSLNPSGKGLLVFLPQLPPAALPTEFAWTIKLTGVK
Text: as §1, §2

[9] = molecular target: T6, β-D-glucuronidase (E. coli) (Escherichia coli, UniProt P05804)
T6 construct: purchased Sigma-Aldrich Co
T6 sequence (P05804 whole entry): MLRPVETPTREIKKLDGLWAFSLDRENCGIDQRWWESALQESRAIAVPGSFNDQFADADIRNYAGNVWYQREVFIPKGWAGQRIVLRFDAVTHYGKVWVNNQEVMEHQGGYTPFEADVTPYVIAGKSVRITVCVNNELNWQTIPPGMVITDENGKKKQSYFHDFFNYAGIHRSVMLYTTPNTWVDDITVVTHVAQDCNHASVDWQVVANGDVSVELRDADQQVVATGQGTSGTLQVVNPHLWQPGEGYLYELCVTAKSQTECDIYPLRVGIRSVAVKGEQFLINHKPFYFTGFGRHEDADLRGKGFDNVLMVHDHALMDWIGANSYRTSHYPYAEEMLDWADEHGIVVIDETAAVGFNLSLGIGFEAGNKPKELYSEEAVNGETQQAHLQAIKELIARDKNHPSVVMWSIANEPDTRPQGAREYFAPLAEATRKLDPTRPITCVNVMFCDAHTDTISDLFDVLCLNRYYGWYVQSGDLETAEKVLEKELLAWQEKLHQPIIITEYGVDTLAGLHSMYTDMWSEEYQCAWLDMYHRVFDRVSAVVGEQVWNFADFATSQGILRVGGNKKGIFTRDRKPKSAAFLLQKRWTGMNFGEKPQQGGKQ
Text: as §1, §2

| Compound | inhibition at 100 µM [1] | α-L-Rhamnosidase P. decumbens, inhibition % at 100 μM [2] | β-D-Glucosidase Almond, inhibition % at 100 μM (β-D-glucosidase (almond)) | β-D-Glucuronidase Bovine Liver, inhibition % at 100 μM [3] | β-D-Mannosidase Snail, inhibition % at 100 μM [4] | inhibition at 100 µM [5] | inhibition at 100 µM [6] | inhibition at 100 µM [7] | inhibition at 100 µM [9] | inhibition at 1000 µM [5] | inhibition at 1000 µM [6] | inhibition at 1000 µM [1] | inhibition at 1000 µM [7] | inhibition at 1000 µM [8] | α-L-Rhamnosidase P. decumbens, inhibition % at 1000 μM [2] | β-D-Glucosidase Almond, inhibition % at 1000 μM (β-D-glucosidase (almond)) | inhibition at 1000 µM [9] | β-D-Glucuronidase Bovine Liver, inhibition % at 1000 μM [3] | β-D-Mannosidase Snail, inhibition % at 1000 μM [4] | other results |
| --- | --- | --- | --- | --- | --- | --- | --- | --- | --- | --- | --- | --- | --- | --- | --- | --- | --- | --- | --- | --- |
| N[C@@H](Cc1ccc(B(O)O)cc1)C(=O)O [BPA, 4-borono-L-phenylalanine, reference compound] | 0% | ^c NI ^d (0%) | ^c NI ^d (0%) | ^c NI ^d (7.4%) | ^c NI ^d (2.1%) |  |  |  |  |  |  |  |  |  |  |  |  |  |  |  |
| CC1(C)O[C@H]2O[C@H]3[C@@H]([C@H]2O1)N(Cc1ccccc1)C[C@H]3O [Compound 3, N-Benzyl-3,6-dideoxy-3,6-imino-1,2-O-isopropylidene-α-D-gulofuranose] | 4.7% | ^c NI ^d (0.5%) | ^c NI ^d (0%) | ^c NI ^d (0%) | ^c NI ^d (2.7%) | 0% | 9.5% | 0.9% | 2.4% |  |  |  |  |  |  |  |  |  |  | inhibition at 100 µM [8]: 0% |
| OC1O[C@@H]2[C@H]([C@H]1O)N(Cc1ccccc1)C[C@H]2O (stereo partly drawn) [Compound 4, N-Benzyl-3,6-dideoxy-3,6-imino-D-gulofuranose] |  |  |  |  |  |  |  |  |  | 0.2% | 1.8% | 0% | 7.5% | 0.4% | ^a NI ^b (0%) | ^a NI ^b (27.4%) | 7% | ^a NI ^b (7.0%) | ^a NI ^b (1.0%) |  |
| OC[C@H](O)[C@@H]1[C@H](O)[C@H](O)CN1Cc1ccccc1 [Compound 5, N-Benzyl-1,4-dideoxy-1,4-imino-L-gulitol] | 2.9% | ^c NI ^d (1.5%) | ^c NI ^d (0%) | ^c NI ^d (3.7%) | ^c NI ^d (6.9%) | 2.1% | 1.5% | 4.4% | 0% |  |  |  |  |  |  |  |  |  |  |  |
| N[C@@H](Cc1ccc(B(O)O)cc1)C(=O)O [^10B-BPA, reference compound] |  | ^c NI ^d (0%) | ^c NI ^d (0%) | ^c NI ^d (0%) | ^c NI ^d (0.3%) |  |  |  |  |  |  |  |  |  |  |  |  |  |  | Amyloglucosidase A. niger, inhibition % at 100 μM ([5]; 100 μM): ^c NI ^d (0%); α-D-Galactosidase Coffee Beans, inhibition % at 100 μM ([6]; 100 μM): ^c NI ^d (1.2%); α-D-Glucosidase Yeast, inhibition % at 100 μM ([1]; 100 μM): ^c NI ^d (0%); α-D-Mannosidase Jack Bean, inhibition % at 100 μM ([7]; 100 μM): ^c NI ^d (0%); α-L-Fucosidase Bovine Kidney, inhibition % at 100 μM ([8]; 100 μM): ^c NI ^d (0%); β-D-Glucuronidase E. coli, inhibition % at 100 μM ([9]; 100 μM): ^c NI ^d (2.4%) |
| CC1(C)O[C@H]2O[C@H]3[C@@H]([C@H]2O1)N(Cc1ccc(B2OC(C)(C)C(C)(C)O2)cc1)C[C@H]3O [para 6, N-(4-Methylphenylboronic acid pinacol ester)-3,6-dideoxy-3,6-imino-1,2-O-isopropylidene-α-D-gulofuranose] | 3.4% | ^c NI ^d (1.4%) | ^c NI ^d (0%) | ^c NI ^d (0%) | ^c NI ^d (0%) | 0% | 1.6% | 0% | 3.2% |  |  |  |  |  |  |  |  |  |  | inhibition at 100 µM [8]: 0% |
| OB(O)c1ccc(CN2CC(O)C3OC(O)C(O)C32)cc1 [para 7, N-(4-Methylphenylboronic acid)-3,6-dideoxy-3,6-imino-D-gulofuranose] |  |  |  |  |  |  |  |  |  | 2.7% | 0% | 0% | 0% | 0.8% | ^a NI ^b (15.8%) | ^a NI ^b (43.6%) | 17.8% | ^a NI ^b (3.5%) | ^a NI ^b (4.1%) |  |
| OC[C@H](O)[C@@H]1[C@H](O)[C@H](O)CN1Cc1ccc(B(O)O)cc1 [para 8, N-(4-Methylphenylboronic acid)-1,4-dideoxy-1,4-imino-L-gulitol] |  |  |  |  |  |  |  |  |  | 3.6% | 1.4% | 5.6% | 0% | 1.7% | ^a NI ^b (26.3%) | ^a NI ^b (28%) | 22.9% | ^a NI ^b (6.0%) | ^a NI ^b (6.9%) |  |
| borocaptate sodium [BSH, reference compound] |  |  |  |  |  |  |  |  |  |  |  |  |  |  | ^a NI ^b (0.2%) | ^a NI ^b (0%) |  | ^a NI ^b (19.6%) | ^a NI ^b (19.2%) | Amyloglucosidase A. niger, inhibition % at 1000 μM ([5]; 1000 μM): ^a NI ^b (0%); α-D-Galactosidase Coffee Beans, inhibition % at 1000 μM ([6]; 1000 μM): ^a NI ^b (12.3%); α-D-Glucosidase Yeast, inhibition % at 1000 μM ([1]; 1000 μM): ^a NI ^b (6.9%); α-D-Mannosidase Jack Bean, inhibition % at 1000 μM ([7]; 1000 μM): ^a NI ^b (7.9%); α-L-Fucosidase Bovine Kidney, inhibition % at 1000 μM ([8]; 1000 μM): ^a NI ^b (0%); β-D-Glucuronidase E. coli, inhibition % at 1000 μM ([9]; 1000 μM): ^a NI ^b (6%) |
